US10053431B2, “Tetrahydro-benzodiazepinones” (priority 2013, dated 2018)
Structures can show the parent of a compound that is named as a salt. Where two headings read alike, the source gives them in different places.

What was measured:
BIR2 domain of XIAP = BIR2 domain of XIAP (Homo sapiens (Human), UniProt P98170, C202A/C213G); assay: TR-FRET assay for BIR2 (inhibition of binding of XIAP BIR2 domain to SMAC-derived Peptide A)
BIR3 domain of XIAP = BIR3 domain of XIAP (Homo sapiens (Human), UniProt P98170); assay: TR-FRET assay for BIR3 (inhibition of binding of XIAP BIR3 domain to SMAC-derived Peptide A); conditions: 6x His-tagged BIR3 domain (aa 241-356 of XIAP) 10 nM, Peptide A 20 nM, TR-FRET
BIR3 domain of XIAP, sequence (P98170 241-356 with tags or gaps limits assumed): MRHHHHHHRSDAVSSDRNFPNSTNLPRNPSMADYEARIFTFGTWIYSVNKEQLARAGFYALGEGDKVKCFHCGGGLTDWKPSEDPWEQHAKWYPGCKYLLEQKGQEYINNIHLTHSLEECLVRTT

[1] = 6x His-tagged BIR2 domain (aa 124-240 of XIAP) 10 nM, Peptide A 20 nM, TR-FRET, read-out: IC50 BIR2

BIR2 domain of XIAP, sequence (P98170 124-240 with tags or gaps C202A/C213G limits assumed): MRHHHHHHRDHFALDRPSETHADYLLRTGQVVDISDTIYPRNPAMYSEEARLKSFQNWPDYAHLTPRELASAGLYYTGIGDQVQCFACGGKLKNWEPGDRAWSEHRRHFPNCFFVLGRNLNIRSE

Row | IC50 (BIR2 domain of XIAP; [1]) | IC50 (BIR3 domain of XIAP) | SMILES | IC50 (BIR2 domain of XIAP; IC50 BIR2)
1 | 36 nM | 53400 nM | CN[C@@H](C)C(=O)N[C@H]1CN(C(=O)c2ccccc2C(C)=O)c2ccccc2N(Cc2c(C)ccc3ccccc23)C1=O [Example 101, (S)—N—[(S)-5-(2-Acetyl-benzoyl)-1-(2-methyl-naphthalen-1-ylmethyl)-2-oxo-2,3,4,5-tetrahydro-1H-benzo[b][1,4]diazepin-3-yl]-2-methylamino-propionamide] | –
2 | 503 nM | 46100 nM | CN[C@@H](C)C(=O)N[C@H]1CN(C(=O)c2ccc(C(C)=O)cc2)c2ccccc2N(CC(=O)Nc2cccc3ccccc23)C1=O [Example 105, (2S)-N-[(3S)-1-(4-acetylbenzoyl)-5-[2-(naphthalen-1-ylamino)-2-oxoethyl]-4-oxo-2,3-dihydro-1,5-benzodiazepin-3-yl]-2-(methylamino)propanamide;2,2,2-trifluoroacetic acid] | –
3 | 17.2 nM | > 54800 nM | CN[C@@H](C)C(=O)N[C@H]1CN2C(=O)CNC(=O)c3ccc4c(c(OC)ccc4c3)CN(C1=O)c1ccccc12 [Example 108, Cyclic-5-[(S)-5-(3-Amino-acetyl)-3-((S)-2-methylamino-propionylamino)-2-oxo-2,3,4,5-tetrahydro-benzo[b][1,4]diazepin-1-ylmethyl]-6-methoxy-naphthalene-2-carboxylic amide hydrochloride] | –
4 | 121 nM | 42300 nM | CN[C@@H](C)C(=O)N[C@H]1CN(C(=O)c2ccc(C(C)=O)cc2)c2ccccc2N(CC(=O)Nc2nc3ccccc3s2)C1=O [Example 109, (2S)-N-[(3S)-1-(4-acetylbenzoyl)-5-[2-(1,3-benzothiazol-2-ylamino)-2-oxoethyl]-4-oxo-2,3-dihydro-1,5-benzodiazepin-3-yl]-2-(methylamino)propanamide;2,2,2-trifluoroacctic acid] | –
5 | 295 nM | > 54800 nM | COc1ccc2ccccc2c1CN1C(=O)C(NC(=O)[C@H](C)N)C(=O)N(CC23CC4CC(CC(C4)C2)C3)c2ccccc21 (stereo partly drawn) [Example 111, (2S)-N-[5-(1-adamantylmethyl)-1-[(2-methoxynaphthalen-1-yl)methyl]-2,4-dioxo-1,5-benzodiazepin-3-yl]-2-aminopropanamide] | –
6 | 324 nM | > 54800 nM | CC[C@H](NC)C(=O)NC1C(=O)N(Cc2c(OC)ccc3ccccc23)c2ccccc2N(CC23CC4CC(CC(C4)C2)C3)C1=O (stereo partly drawn) [Example 113, (2S)-N-[5-(1-adamantylmethyl)-1-[(2-methoxynaphthalen-1-yl)methyl]-2,4-dioxo-1,5-benzodiazepin-3-yl]-2-(methylamino)butanamide] | –
7 | 530 nM | > 54800 nM | CC[C@H](NC)C(=O)NC1C(=O)N(C)c2ccccc2N(Cc2c(C)ccc3ccccc23)C1=O (stereo partly drawn) [Example 114, (2S)-N-(1-methyl-5-((2-methylnaphthalen-1-yl)methyl)-2,4-dioxo-2,3,4,5-tetrahydro-1H-benzo[b][1,4]diazepin-3-yl)-2-(methylamino)butanamide] | –
8 | 6.28 nM | > 54800 nM | CN[C@@H](C)C(=O)N[C@H]1CN(C(=O)c2ccc(C(C)=O)cc2)c2ccccc2N(Cc2nn(-c3ccccc3C#N)c3ccccc23)C1=O [Example 120, (S)-N-((S)-5-(4-acetylbenzoyl)-1-((1-(2-cyanophenyl)-1H-indazol-3-yl)methyl)-2-oxo-2,3,4,5-tetrahydro-1H-benzo[b][1,4]diazepin-3-yl)-2-(methylamino)propanamide 2,2,2-trifluoroacetate] | –
9 | 14.8 nM | 46400 nM | CN[C@@H](C)C(=O)N[C@H]1CN(C(=O)c2ccc(N)cc2)c2cc(Cl)ccc2N(Cc2c(C)ccc3ccccc23)C1=O [Example 121, (S)-N-((S)-5-(4-aminobenzoyl)-7-chloro-1-((2-methylnaphthalen-1-yl)methyl)-2-oxo-2,3,4,5-tetrahydro-1H-benzo[b][1,4]diazepin-3-yl)-2-(methylamino)propanamide hydrochloride] | –
10 | 6.71 nM | 18700 nM | CN[C@@H](C)C(=O)N[C@H]1CN(C(=O)c2ccc(N)cc2)c2cc(Cl)ccc2N(Cc2c(OC)ccc3c(Br)cccc23)C1=O [Example 123, (S)-N-((S)-5-(4-aminobenzoyl)-1-((5-bromo-2-methoxynaphthalen-1-yl)methyl)-7-chloro-2-oxo-2,3,4,5-tetrahydro-1H-benzo[b][1,4]diazepin-3-yl)-2-(methylamino)propanamide hydrochloride] | –
11 | 7.92 nM | 25600 nM | CN[C@@H](C)C(=O)N[C@H]1CN(C(=O)c2ccc(C(C)=O)cc2)c2cc(Cl)ccc2N(Cc2c(OC)ccc3c(Br)cccc23)C1=O [Example 125, (S)-N-((S)-5-(4-acetylbenzoyl)-1-((5-bromo-2-methoxynaphthalen-1-yl)methyl)-7-chloro-2-oxo-2,3,4,5-tetrahydro-1H-benzo[b][1,4]diazepin-3-yl)-2-(methylamino)propanamide hydrochloride] | –
12 | 17.2 nM | 21500 nM | CN[C@@H](C)C(=O)N[C@H]1CN(C(=O)c2ccc(F)cc2)c2cc(Cl)ccc2N(Cc2c(OC)ccc3c(Br)cccc23)C1=O [Example 126, (S)-N-((S)-1-((5-bromo-2-methoxynaphthalen-1-yl)methyl)-7-chloro-5-(4-fluorobenzoyl)-2-oxo-2,3,4,5-tetrahydro-1H-benzo[b][1,4]diazepin-3-yl)-2-(methylamino)propanamide hydrochloride] | –
13 | 35.6 nM | 16400 nM | CN[C@@H](C)C(=O)N[C@H]1CN(C(=O)c2ccc(F)cc2)c2cc(Cl)ccc2N(Cc2c(OC)ccc3cc(Br)ccc23)C1=O [Example 130, (S)-N-((S)-1-((6-bromo-2-methoxynaphthalen-1-yl)methyl)-7-chloro-5-(4-fluorobenzoyl)-2-oxo-2,3,4,5-tetrahydro-1H-benzo[b][1,4]diazepin-3-yl)-2-(methylamino)propanamide hydrochloride] | –

Row | SMILES | IC50 (BIR2 domain of XIAP; [1]) | IC50 (BIR3 domain of XIAP) | IC50 (BIR2 domain of XIAP; IC50 BIR2)
14 | CN[C@@H](C)C(=O)N[C@H]1CN(S(=O)(=O)N(C)C)c2ccccc2N(Cc2c(C)ccc3ccccc23)C1=O [Example 100, (S)—N—[(S)-5-Dimethylsulfamoyl-1-(2-methyl-naphthalen-1-ylmethyl)-2-oxo-2,3,4,5-tetrahydro-1H-benzo[b][1,4]diazepin-3-yl]-2-methylamino-propionamide hydrochloride] | 249 nM | > 54800 nM | –
15 | CC[C@H](NC)C(=O)NC1C(=O)N(Cc2c(C)ccc3ccccc23)c2ccccc2N(c2ccccc2)C1=O (stereo partly drawn) [Example 115, (2S)-2-(methylamino)-N-(1-((2-methylnaphthalen-1-yl)methyl)-2,4-dioxo-5-phenyl-2,3,4,5-tetrahydro-1H-benzo[b][1,4]diazcpin-3-yl)butanamide] | – | > 54800 nM | 68.7 nM
16 | CN[C@@H](C)C(=O)NC1C(=O)N(Cc2c(C)ccc3ccccc23)c2ccccc2N(c2ccccc2)C1=O (stereo partly drawn) [Example 116, (2S)-2-(methylamino)-N-(1-((2-methylnaphthalen-1-yl)methyl)-2,4-dioxo-5-phenyl-2,3,4,5-tetrahydro-1H-benzo[b][1,4]diazepin-3-yl)propanamide] | – | > 54800 nM | 39.8 nM
17 | CN[C@@H](C)C(=O)NC1C(=O)N(Cc2c(OC)ccc3cc(Br)ccc23)c2ccccc2N(c2ccccc2)C1=O (stereo partly drawn) [Example 128, (2S)-N-(1-((6-bromo-2-methoxynaphthalen-1-yl)methyl)-2,4-dioxo-5-phenyl-2,3,4,5-tetrahydro-1H-benzo[b][1,4]diazepin-3-yl)-2-(methylamino)propanamide] | – | 44800 nM | 4.99 nM
